Assay results taken from ChEMBL document CHEMBL1201862, “PubChem BioAssay data set” (2004).
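Interpolation was linear, between the two tested concentrations surrounding the appropriate level; five concentrations were tested over 48 hours in 96-well plates. GI50: concentration for 50% inhibition of growth.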 Active and inactive are the calls of the source. Cut-off read from the data, not from the text of the source: active = GI50 up to about 1.1 µM and inactive = higher.

Tests used:
Assay in all cases: DTP human tumour cell line panel, 48 h
M19-MEL = test system: M19-MEL
KM-20L2 = test system: KM-20L2
DMS-114 = test system: DMS-114
LXFL 529 = test system: LXFL 529
HOP-18 = test system: HOP-18
DLD-1 = test system: DLD-1
DMS-273 = test system: DMS-273
XF498 = test system: XF498
RXF 631 = test system: RXF 631

Measured: GI50

COC(=O)N1[C@H]2Cc3c(OC)c(C)c(OC)c(OC)c3[C@@H]1/C(=C\c1cc(OC)c(OC)c(C)c1OC)N(Cc1ccccc1)C2=O
inactive: M19-MEL 19.9 µM | KM-20L2 46.2 µM | DMS-114 14.7 µM | LXFL 529 22 µM | HOP-18 41.8 µM | DLD-1 76.9 µM | DMS-273 13.2 µM

C/C(CN1C(=O)c2ccccc2C1=O)=N\NS(C)(=O)=O
inactive: M19-MEL > 100 µM | XF498 > 100 µM | KM-20L2 > 100 µM | DMS-114 > 100 µM | LXFL 529 > 100 µM | HOP-18 > 100 µM | DLD-1 > 100 µM | DMS-273 > 100 µM

C[N+](C)=c1nc(N2CCc3ccccc3C2)ss1.[O-][Cl+3]([O-])([O-])[O-]
inactive: M19-MEL > 100 µM | RXF 631 > 100 µM | KM-20L2 > 100 µM | DMS-114 60.1 µM | LXFL 529 69.3 µM | HOP-18 > 100 µM | DLD-1 90.4 µM | DMS-273 > 100 µM

O=C(Cc1ccccc1)NN1C(=O)C(Cl)C1c1ccc(O)cc1 (stereo not drawn)
inactive: M19-MEL > 100 µM | KM-20L2 > 100 µM | DMS-114 > 100 µM | HOP-18 > 100 µM | DLD-1 > 100 µM | DMS-273 > 100 µM

COC1=CC(=O)C2C(C1=O)C(c1ccc(Cl)cc1)[C@@H]2C (stereo partly drawn)
inactive: M19-MEL 33.7 µM | XF498 18.3 µM | KM-20L2 51.1 µM | DMS-114 21.5 µM | LXFL 529 17.5 µM | HOP-18 12.2 µM | DLD-1 25.9 µM | DMS-273 41 µM

CCOC(=O)C1Oc2ccc([N+](=O)[O-])c3c2C1(O)CCC3 (stereo not drawn)
inactive: M19-MEL > 100 µM | RXF 631 > 100 µM | DMS-114 > 100 µM | LXFL 529 > 100 µM | DLD-1 > 100 µM | DMS-273 > 100 µM

CC(C)(C)OC(=O)NC(CO)c1cccc(OCc2ccccc2)c1 (stereo not drawn)
inactive: M19-MEL > 89.7 µM | XF498 > 100 µM | KM-20L2 > 100 µM | DMS-114 23.1 µM | LXFL 529 > 100 µM | HOP-18 > 100 µM | DLD-1 > 100 µM | DMS-273 53.2 µM

COc1ccc(/C=C\c2cc(OC)c(OC(C)=O)c(OC)c2)cc1
inactive: M19-MEL 8.91 µM | RXF 631 23.5 µM | XF498 30.3 µM | KM-20L2 29.5 µM | DMS-114 4.78 µM | LXFL 529 19.7 µM | DLD-1 14.2 µM | DMS-273 5.31 µM

Oc1ncnc2c1nnn2CCCCCCCCCCCCn1nnc2c(O)ncnc21
inactive: M19-MEL > 100 µM | KM-20L2 > 100 µM | DMS-114 7.06 µM | LXFL 529 33.6 µM | HOP-18 24.2 µM | DLD-1 > 91.2 µM | DMS-273 27.5 µM

CC(C)(C)NN=C1C(C)(C)C(=NNC(C)(C)C)C1(C)C
inactive: M19-MEL > 100 µM | XF498 > 100 µM | KM-20L2 > 100 µM | DMS-114 > 100 µM | LXFL 529 > 100 µM | DLD-1 > 100 µM | DMS-273 > 100 µM

CCO/C=C\C12CCCC1NC(c1ccccc1)(c1ccccc1)O2 (stereo not drawn)
inactive: M19-MEL 24.7 µM | KM-20L2 23.1 µM | DMS-114 30.6 µM | LXFL 529 28.1 µM | DLD-1 32.3 µM | DMS-273 32.7 µM

O=C(c1ccccc1)C(c1ccccc1)C1(O)C(=O)Nc2c(Cl)ccc(Cl)c21 (stereo not drawn)
inactive: KM-20L2 34.2 µM | DMS-114 17 µM | LXFL 529 17.2 µM | HOP-18 24.2 µM | DLD-1 18.2 µM | DMS-273 14.4 µM

C=C(C)C1CCC2(C)CC1c1c(c(C)cc3c1[nH]c1ccccc13)O2 (stereo not drawn)
inactive: M19-MEL > 25 µM | XF498 > 25 µM | KM-20L2 > 25 µM | DMS-114 > 25 µM | LXFL 529 > 25 µM | DLD-1 > 25 µM | DMS-273 > 25 µM

N/C(=N\N=C=C1C(=O)Nc2ccc(F)cc21)NO
inactive: M19-MEL > 100 µM | RXF 631 > 100 µM | XF498 > 100 µM | DMS-114 > 100 µM | LXFL 529 > 100 µM | DLD-1 > 100 µM | DMS-273 > 100 µM

N#C/C(=C/c1cccc(Oc2ccccc2)c1)c1ccccc1
inactive: M19-MEL > 100 µM | XF498 > 100 µM | DMS-114 51.8 µM | LXFL 529 > 100 µM | HOP-18 > 100 µM | DLD-1 > 100 µM

Cc1cn(C2CC(n3cncn3)C(C(C)O)O2)c(=O)[nH]c1=O (stereo not drawn)
inactive: M19-MEL > 100 µM | XF498 > 100 µM | KM-20L2 > 100 µM | DMS-114 > 100 µM | LXFL 529 > 100 µM | HOP-18 > 100 µM | DLD-1 > 100 µM | DMS-273 > 100 µM

Cc1nn2c(=O)n(-c3cccc(-n4nnc5c(-c6ccccc6)c(C)nn5c4=O)c3C)nnc2c1-c1ccccc1
inactive: M19-MEL 23.6 µM | XF498 20.9 µM | KM-20L2 19.5 µM | DMS-114 13.8 µM | LXFL 529 24.7 µM | HOP-18 4.94 µM | DLD-1 22.8 µM | DMS-273 66.8 µM

CC1=C(C#N)C(N)=C2C(C)=C(C#N)C(N)=C12
inactive: M19-MEL > 100 µM | XF498 > 100 µM | KM-20L2 > 100 µM | DMS-114 > 100 µM | LXFL 529 > 100 µM | DLD-1 > 100 µM | DMS-273 > 100 µM
